This note sets out measurements from patent publication US8883824B2, “3-(4-aminophenyl)-2-furancarboxylic acid derivative and pharmaceutically acceptable salt thereof” (Sumitomo Dainippon Pharma Co., Ltd., priority 2009, dated 2014).

The target of data set [1] is T1, glucagon receptor (rat hepatocyte membrane) (Rattus norvegicus, UniProt P30082).
T1 construct: A cell membrane was prepared from the liver of an SD rat; from tissue; host or cells: SD rat liver (cell membrane fraction)
In words: Glucagon receptor binding inhibition. To be noted: SD rat liver cell membrane, 50 pM (3-[125I]iodotyrosyl10)glucagon, 25° C., 120 minutes; read-out: IC50 (nM) Rat, glucagon receptor binding inhibitory activity. How it is done: The composition of the reaction solution used in the receptor binding inhibition experiment was prepared according to the method described in Bioorg. Med. Chem. Lett., 1992, 12, 915-918, using the following methods. (3-[^125I] iodotyrosyl^10) Glucagon and a rat hepatocyte membrane were obtained or prepared according to the following methods.
(3-[^125I] iodotyrosyl^10)Glucagon was obtained according to the following method at PerkinElmer Co., Ltd (Great Britain). Using a chloramine T method, glucagon (Peptide Institute) was labeled with [^125I], and (3-[^1251] iodotyrosyl ^10)Glucagon was separated using HPLC. Purchased from PerkinElmer Co., Ltd. (Great Britain), was a product obtained by dissolving it in an aqueous solution containing 10 mM citric acid, 5% lactose, 0.2% cysteine HCl, and 0.25% BSA so that the radioactivity was 3.7 MBq/mL at reference date, followed by freeze-drying. The product was re-dissolved in a 0.3-TIU/mL aprotinin aqueous solution so that the radioactivity was 3.7 MBq/mL at reference date, and it was freeze-stored at −15 to −40° C. for use.
A cell membrane was prepared from the liver of an SD rat according to the method described on pages 31 to 33 of Zikken Seibutsugaku Kouza 6, Saibou bunkakuhou (Experimental Biology Lecture 6, Cell Fraction Method) (Maruzen Co., Ltd.). The resulting cell membrane was freeze-stored at −70 to −85° C. for use.
The cell membrane that had been dissolved at room temperature and then suspended using a Physcotron (Microtec Co., Ltd. was added to a 50-mM Tris-HCl buffer (pH 7.2) containing 1 mg/mL BSA (Sigma-Aldrich), 0.1 mg/mL bacitracin (Wako Pure Chemical Industries, Ltd.), 1% DMSO, 0.01% acetic acid, and 50 pM) (3-[^125I] iodotyrosyl^10) Glucagon (pH 7.2) (each value indicating the final concentration and the radioactivity of (3-[^125I] iodotyrosyl^10) Glucagon calculated on the measurement date) to give a total amount of 0.2 mL. The reaction was started and incubation was performed at 25° C. for 120 minutes. The concentration of the cell membrane was adjusted so that 10% of the added)(3-[^1251] iodotyrosyl^100 Glucagon was equal to the total amount of binding.
Using a GF/C filter (Whatman International Ltd., Great Britain) immersed for more than 15 minutes in 0.3% polyethyleneimine (Sigma-Aldrich, Co., LLC), whose pH was adjusted to 7.2 by adding hydrochloric acid, the reaction solution was subjected to suction filtration to recover (3-[^125I] iodotyrosyl)Glucagon bound to the membrane. The filter was washed 3 times with an ice-cooled 50-mM Tris-HCl buffer (pH 7.4), and the radioactivity of the filter was measured by using a γ counter (1470 WIZARD γ-counter)(Wallac). The amount of specific binding was measured by subtracting the amount of nonspecific binding determined in the presence of 10 μM glucagon (Peptide Institute, Inc.) from the total amount of binding.
The amount of specific binding in the absence of a test compound was regarded as 100%, and inhibitions (%) at various concentrations of test compounds were calculated. The concentration at 50% inhibition of binding (IC50) was calculated using a nonlinear least squares method.

The subject of data set [2] is ob/ob mice. In words: Blood sugar decrease in ob/ob mice (hyperglycemia and impaired fasting glycemia). It counts as in vivo. From the text:
Effects of the compound of Example 69 on hyperglycemia and impaired fasting glycemia in ob/ob mice, which are type II diabetes models, were examined.
B6.V-Lepob/J (ob/ob) mice and control B6.V-Lepob/J (?/+) mice (male, 6 to 7 weeks old, n=8, Charles River Japan Inc.) were used. To examine the effect on hyperglycemia, feed was removed from the cage at the same time as the start of drug administration, and to examine the effect on impaired fasting glycemia, feed was removed from the cage about 20 hours before the scheduled time of drug administration. Under each experimental condition, the mice were allowed free access to drinking water. 2, 4 and 6 hours after the forced oral administration of the compound (0.01-1.0 mg/kg) of Example 69, which had been suspended in 0.5% methyl cellulose, the blood sugar levels were examined.

Data set [3] relates to ob/ob mice. In words: Combination use with DPPIV inhibitor sitagliptin, postprandial hyperglycemia in ob/ob mice. The class given is in vivo. How it is done: B6.V-Lepob/J (ob/ob) mice and control B6.V-Lepob/J (?/+) mice (male, 6 to 7 weeks old, n=8, Charles River Japan) were used. […] One hour later, liquid food (ensure H, Abbott Japan, Co., Ltd., 1.5 kcal/mL) was orally administered. The blood sugar levels immediately before, and 15, 30, 60, and 90 minutes after administration of the liquid food were measured.

The test system of data set [4] is ob/ob mice. In words: Combination use with metformin, HbA1c in ob/ob mice. To be noted: oral; for HbAlc value: single use, 4 weeks (Example 69 3 mg/kg twice a day; metformin 100 mg/kg twice a day). It counts as in vivo. How it is done:
An experiment using the compound of Example 69 and metformin in combination was performed to examine the effect on the HbAlc value in ob/ob mice.
B6.V-Lepob/J (ob/ob) mice and control B6.V-Lepob/J (?/+) mice (male, 6 to 7 weeks old, n=8, Charles River Japan) were used. The compound of Example 69 (3 mg/kg, twice a day) suspended in 0.5% methyl cellulose, and metformin (100 mg/kg, twice a day) dissolved in the solvent were orally administered repeatedly for 4 weeks singly or in combination.

Data set [5] has as its system ob/ob mice. The data set is described as follows: Combination use with pioglitazone, HbA1c in ob/ob mice. The class given is in vivo. Conditions: oral. How it is done:
An experiment using the compound of Example 69 and pioglitazone in combination was performed to examine the effect on the HbAlc values in ob/ob mice.
B6.V-Lepob/J (ob/ob) mice and control B6.V-Lepob/J (?/+) mice (male, 6 to 7 weeks old, n=8, Charles River Japan) were used. The compound of Example 69 suspended in 0.5% methyl cellulose (3 mg/kg, twice a day), and pioglitazone (1 mg/kg, once a day) were orally administered repeatedly for 4 weeks singly or in combination.
The effects were compared based on the […] (HbA1c) value, and a diabetes-like state (prolonged hyperglycemic state) was confirmed by HbA1c increase in the ob/ob mice.

[6] abbreviates: combination use of Example 69 (0.1 mg/kg) and sitagliptin (5 mg/lm), single oral dose.
The mark [7] stands for this setting: single use, single oral dose (Example 69 0.1 mg/kg; sitagliptin 5 mg/lm) one hour before liquid food.

“Also recorded” adds a separate entry of the source. Structures can show the parent of a compound that is named as a salt.

T1 sequence (P30082 27-485): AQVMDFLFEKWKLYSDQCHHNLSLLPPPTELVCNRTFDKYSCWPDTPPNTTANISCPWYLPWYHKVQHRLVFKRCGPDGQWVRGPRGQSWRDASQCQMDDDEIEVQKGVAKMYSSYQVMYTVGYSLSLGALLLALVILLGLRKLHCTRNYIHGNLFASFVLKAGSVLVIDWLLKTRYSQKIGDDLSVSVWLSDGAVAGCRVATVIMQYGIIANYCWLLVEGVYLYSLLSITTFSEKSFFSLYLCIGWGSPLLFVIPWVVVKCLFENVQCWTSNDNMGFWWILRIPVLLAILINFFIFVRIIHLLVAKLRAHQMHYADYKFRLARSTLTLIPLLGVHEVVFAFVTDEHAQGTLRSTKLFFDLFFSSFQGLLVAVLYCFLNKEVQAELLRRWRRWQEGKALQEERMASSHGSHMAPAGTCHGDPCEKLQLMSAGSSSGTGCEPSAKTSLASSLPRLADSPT

As a reminder, the IC50 is the point on the concentration scale where inhibition reaches its midpoint. As for `N#Cc1cc(C(=O)NNC(=O)c2occc2-c2cccc(NC(=O)c3ccccc3)c2)ccc1O` [Compound A, reference compound], the IC50 in data set [1] was found to be 2800 nM. Regarding `CC(=O)N(Cc1ccccc1)c1cccc(-c2ccoc2C(=O)NNC(=O)c2ccc(O)c(C#N)c2)c1` [Compound B, reference compound], the IC50 in data set [1] turned out to be 1200 nM.

Take `CC(=O)Nc1cccc(-c2ccoc2C(=O)NNC(=O)c2ccc(O)c(C#N)c2)c1` [Compound C, reference compound]: the IC50 in data set [1] was determined as 340 nM.

On to `N#Cc1cc(C(=O)NNC(=O)c2occc2-c2cccc(NC(=O)OCc3ccccc3)c2)ccc1O` [Compound D, reference compound], for which the IC50 in data set [1] was 400 nM. Take `N#Cc1cc(C(=O)NNC(=O)c2occc2-c2cccc(N)c2)ccc1O` [Compound E, reference compound]: the IC50 in data set [1] was 9800 nM. Regarding `Cc1ccc(C(C)Nc2ccc(-c3ccoc3C(=O)NNC(=O)c3ccc(O)c([N+](=O)[O-])c3)cc2)cc1` (stereo not drawn) [Example 1, 3-(4-{[1-(4-methylphenyl)ethyl]amino}phenyl)-2-furan carboxylic acid-2-(4-hydroxy-3-nitrobenzoyl)hydrazide hydrochloride], the IC50 in data set [1] came out at 0.22 nM.

On to `CC(C)(C)c1ccc(CNc2ccc(-c3ccoc3C(=O)NNC(=O)c3ccc(O)c([N+](=O)[O-])c3)cc2)cc1` [Example 6], for which the IC50 in data set [1] worked out at 0.13 nM. Same read-out and setting: the figure for `O=C(NNC(=O)c1occc1-c1ccc(NCc2ccc(OC(F)(F)F)cc2)cc1)c1ccc(O)c([N+](=O)[O-])c1` [Example 7] is 0.34 nM. On the same count and under the same terms, the figure for `C[C@H](Nc1ccc(-c2ccoc2C(=O)NNC(=O)c2ccc(O)c([N+](=O)[O-])c2)cc1)c1ccc(F)cc1` [Example 68, 3-(4-{[(1S)-1-(4-fluorophenyl)ethyl]amino}phenyl)-2-furan carboxylic acid-2-(4-hydroxy-3-nitrobenzoyl)hydrazide] is 0.11 nM.

Turning to `Cc1ccc([C@H](C)Nc2ccc(-c3ccoc3C(=O)NNC(=O)c3ccc(O)c([N+](=O)[O-])c3)cc2)cc1` [Example 69], the IC50 in data set [1] was found to be 0.085 nM. Moreover, the “duration of the blood sugar decreasing effect” value with ob/ob mice [2] (high-dose administration, oral) is recorded as “continued even 6 hours after the administration”. Also, in the data set with ob/ob mice [2] (oral 0.01-1.0 mg/kg), the “blood sugar level relative to the healthy (control) mouse” value is reported as “not reduced to below the level of the healthy mouse”. For the same molecule, the “blood sugar decreasing effect at 2 hours after administration” value with ob/ob mice [2] (oral 0.01-1.0 mg/kg, any dosage, under each experimental condition (hyperglycemia; impaired fasting glycemia)) is “remarkable blood sugar decreasing effect”. In the data set on ob/ob mice [3] (setting [6]), the “area under the blood concentration-time curve (blood sugar) after liquid food” value is “normalized”, the “blood sugar level 15 minutes after the administration of liquid food” value is on record as “normalized” and the hypoglycemia result is given as “without causing hypoglycemia”. The “postprandial hyperglycemia inhibitory effect versus the single use of each agent” value with ob/ob mice [3] (combination use of Example 69 and sitagliptin (FIGS. 1 and 2)) is recorded as “extremely stronger postprandial hyperglycemia inhibitory effect”. Also, in the data set with ob/ob mice [3] (setting [7]), the “area under the blood concentration-time curve (blood sugar) after liquid food” value was “normalized” and the “blood sugar increase 15 minutes after the administration of liquid food” value is given as “could not normalize”. Also, the “HbAlc reduction effect versus single use” value in the data set with ob/ob mice [4] (combination use of Example 69 (3 mg/kg twice a day) and metformin (100 mg/kg twice a day), 4 weeks) is on record as “higher HbAlc reduction effect; also recorded: extremely stronger HbAlc reduction effect”. For the same molecule, the HbAlc value result with ob/ob mice [4] is given as “HbAlc reduction”. The “HbA1c reduction effect versus single use” value in the data set on ob/ob mice [5] (combination use of Example 69 (3 mg/kg twice a day) and pioglitazone (1 mg/kg once a day), 4 weeks) is given as “higher HbA1c reduction effect; also recorded: extremely stronger HbA1c reduction effect”. The HbA1c value result in the data set with ob/ob mice [5] (single use, 4 weeks (Example 69 3 mg/kg twice a day; pioglitazone 1 mg/kg once a day)) is recorded as “attained HbA1c reduction”.

On to `CCc1ccc([C@H](C)Nc2ccc(-c3ccoc3C(=O)NNC(=O)c3ccc(O)c([N+](=O)[O-])c3)cc2)cc1` [Example 70], for which the half-maximal inhibitory concentration (IC50) in data set [1] stood at 0.13 nM. `Cc1ccc([C@H](C)Nc2ccc(-c3ccoc3C(=O)NNC(=O)c3ccc(O)c([N+](=O)[O-])c3)cc2)cc1C` [Example 71]: the IC50 in data set [1] is 0.043 nM.

In the case of `C[C@H](Nc1ccc(-c2ccoc2C(=O)NNC(=O)c2ccc(O)c([N+](=O)[O-])c2)cc1)c1ccc(Cl)cc1` [Example 72], the half-maximal inhibitory concentration (IC50) in data set [1] was 0.14 nM. On the same count and under the same terms, the figure for `Cc1cccc([C@H](C)Nc2ccc(-c3ccoc3C(=O)NNC(=O)c3ccc(O)c([N+](=O)[O-])c3)cc2)c1` [Example 73] is 0.16 nM; for `Cc1cc([C@H](C)Nc2ccc(-c3ccoc3C(=O)NNC(=O)c3ccc(O)c([N+](=O)[O-])c3)cc2)ccc1Cl` [Example 75] it is 0.12 nM. Still for that read-out and setting: the figure for `C[C@@H](Nc1ccc(-c2ccoc2C(=O)NNC(=O)c2ccc(O)c([N+](=O)[O-])c2)cc1)c1ccc(F)cc1` [Example 76] is 5.8 nM; for `C[C@H](Nc1ccc(-c2ccoc2C(=O)NNC(=O)c2ccc(O)c([N+](=O)[O-])c2)cc1)C1CCCCC1` [Example 77] it is 0.35 nM; for `C[C@H](Nc1ccc(-c2ccoc2C(=O)NNC(=O)c2ccc(O)c([N+](=O)[O-])c2)cc1)c1ccccc1` [Example 78] it is 0.62 nM. The same measure, in the same setting: the figure for `C[C@H](Nc1ccc(-c2ccoc2C(=O)NNC(=O)c2ccc(O)c(C#N)c2)cc1)c1ccc(F)cc1` [Example 79, 3-(4-{[(1S)-1-(4-fluorophenyl)ethyl]amino}phenyl)-2-furan carboxylic acid-2-(3-cyano-4-hydroxybenzoyl)hydrazide] is 0.74 nM. With `CN(C)C(=N)N=C(N)N` [metformin, reference compound], in the data set with ob/ob mice [4], the HbAlc value result was “HbAlc reduction”.
